Consider three molecules from publication PMC12219075 (Scientific Reports, 2025).

The assay has as its target Proto-oncogene tyrosine-protein kinase Src (SRC) (Homo sapiens, UniProt P12931). Put plainly: mobility shift kinase assay. The format is biochemical.

pIC50: −log10 of the molar value.

The pIC50 is the negative decadic logarithm of the IC50, by convention in mol/L.

Sequence of Proto-oncogene tyrosine-protein kinase Src (SRC) (P12931 2-536): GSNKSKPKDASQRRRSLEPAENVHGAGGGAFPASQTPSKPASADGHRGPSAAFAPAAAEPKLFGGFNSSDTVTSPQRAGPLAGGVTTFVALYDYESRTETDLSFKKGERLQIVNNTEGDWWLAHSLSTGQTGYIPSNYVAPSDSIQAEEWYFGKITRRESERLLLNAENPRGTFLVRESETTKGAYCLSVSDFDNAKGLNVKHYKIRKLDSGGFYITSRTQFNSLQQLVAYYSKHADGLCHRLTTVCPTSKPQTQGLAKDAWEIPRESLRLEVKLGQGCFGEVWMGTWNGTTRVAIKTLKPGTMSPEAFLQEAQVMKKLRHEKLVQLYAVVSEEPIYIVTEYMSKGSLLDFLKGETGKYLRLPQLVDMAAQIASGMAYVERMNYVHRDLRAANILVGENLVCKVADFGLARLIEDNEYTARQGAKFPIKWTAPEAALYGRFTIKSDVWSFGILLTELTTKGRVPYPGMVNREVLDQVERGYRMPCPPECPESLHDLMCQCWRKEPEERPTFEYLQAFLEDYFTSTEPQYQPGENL

In the case of `C[C@@H]1CC[C@]2(C(=O)O)CC[C@]3(C)C(=CC[C@@H]4[C@@]5(C)C[C@@H](O)[C@@H](O)C(C)(C)[C@@H]5CC[C@]43C)[C@@H]2[C@]1(C)O` [compound 99, 2α,3α,19α-trihydroxyurs-12-en-28-oic acid], the pIC50 was 4.65.

`CC1(C)CC[C@]2(C(=O)O)CC[C@]3(C)C(=CC[C@@H]4[C@@]5(C)C[C@@H](O)[C@H](O)C(C)(C)[C@@H]5CC[C@]43C)[C@@H]2C1` [compound 102, crataegolic acid]: the negative-log IC50 (pIC50) is 4.57.

As to `CC1(C)CC[C@]2(C(=O)O)CC[C@]3(C)C(=CC[C@@H]4[C@@]5(C)CC[C@H](O)C(C)(C)[C@@H]5CC[C@]43C)[C@@H]2C1` [compound 116, oleanolic acid], the negative-log IC50 (pIC50) was 4.52.
